Assays:
[1] = tested on: MA13/C murine mammary adenocarcinoma tumor; test: Antitumor effect on advanced MA13/C murine mammary adenocarcinoma grafted subcutaneously in mice; type: in vivo, female C3H/HeN mice
Experimental: This efficacy can be quantified, for example by the log10 cell kill, which is determined by the following formula: log10 cell kill=T-C (days)/3.32×Td in which T-C represents the delay in tumor growth, which is the average time, in days, taken by the tumors of the treated group (T) to reach a predetermined value (1 g for example) and for the tumors of the control group (C) to reach the same value, and Td represents the time, in days, necessary for the volume of the tumors in the control group to double. During the exponential phase of tumor growth (T. H. Corbett et al., Cancer, 40, 2660.2680 (1977); F. M. Schabel et al., Cancer Drug Development, Part B, Methods in Cancer Research, 17, 3-51, New York, Academic Press Inc. (1979)). A product is considered to be active if the log10 cell kill is greater than or equal to 0.7.
The efficacy of the combinations of solid tumors can be determined experimentally in the following way:
(§1) The animals subjected to the experiment are female C3H/HeN mice which are bilaterally grafted subcutaneously with 30 to 60 mg of a fragment of MA13/C murine mammary adenocarcinoma tumor at day 0. In the case of an early tumor treatment, the implanted animals are distributed randomly in various groups which are or are not (controls) intended to receive the treatment(s). […] Generally, the chemotherapy begins from 3 to 22 days after the graft, according to the type of tumor and the desired tumor size. The animals are observed and weighed every day. A dose which induces a weight loss of 20% or more at the lowest point (average of the group) or a mortality of 10% or more is considered to be toxic. The tumoral activity is evaluated at the highest nontoxic dose.
The tumors are measured 2 or 3 times a week until the tumor reaches approximately 2 g or until the animal dies, if this occurs before the tumor reaches 2 g. The animals are autopsied when they are sacrificed.
The antitumor activity is determined in accordance with various recorded parameters, such as the dose (mg/kg), the method of administration, the administration time, the toxicity and the log cell kill, which depends on the delay in tumor growth and also on the tumor doubling time.

[2] = Toxicity (mortality, weight loss) in tumor-bearing mice; type: in vivo, female C3H/HeN mice
Experimental: as §1

[3] = Formula (IIa) IV 22.3 mg/kg per administration, days 21, 25, total dose 44.6 mg/kg
[4] = Formula (IIa) IV 36.0 mg/kg per administration, days 21, 25, total dose 72.0 mg/kg
[5] = Formula (IIa) IV 58.0 mg/kg per administration, days 21, 25, total dose 116.0 mg/kg
[6] = Formula (IIa) IV 93.5 mg/kg per administration, days 21, 25, total dose 187.0 mg/kg
[7] = VEGF Trap SC 10.0 mg/kg per administration, days 21, 25, total dose 20.0 mg/kg
[8] = VEGF Trap SC 25.0 mg/kg per administration, days 21, 25, total dose 50.0 mg/kg
[9] = VEGF Trap SC 40.0 mg/kg per administration, days 21, 25, total dose 80.0 mg/kg

COc1ccc(/C=C\c2cc(OC)c(OC)c(OC)c2)cc1NC(=O)C(N)CO (stereo not shown) [Formula (IIa)]
Comments [1, 3]: Inactive
Log cell kill [1, 3]: 0.4
Regression Complete [1, 3]: 0/5
Regression Partial [1, 3]: 0/5
T-C [1, 3]: 3.4 days
Time to reach tumor size of 1000 mg (median) [1, 3]: 27.2 days
Comments [1, 4]: Inactive
Log cell kill [1, 4]: 0.5
Regression Complete [1, 4]: 0/5
Regression Partial [1, 4]: 0/5
T-C [1, 4]: 4.1 days
Time to reach tumor size of 1000 mg (median) [1, 4]: 27.9 days
Comments [1, 5]: inactive
Log cell kill [1, 5]: 0.6
Regression Complete [1, 5]: 0/5
Regression Partial [1, 5]: 0/5
T-C [1, 5]: 5.1 days
Time to reach tumor size of 1000 mg (median) [1, 5]: 28.9 days
Average weight loss as % per mouse at the lowest point (day of the lowest point) [2, 3]: 0.6 (22) %
Mortality related to the agent (day of death) [2, 3]: 0/5
Average weight loss as % per mouse at the lowest point (day of the lowest point) [2, 4]: 2.1 (22) %
Mortality related to the agent (day of death) [2, 4]: 0/5
Average weight loss as % per mouse at the lowest point (day of the lowest point) [2, 5]: 3.8 (22) %
Comments (dose level) [2, 5]: HNTD
Mortality related to the agent (day of death) [2, 5]: 0/5
Average weight loss as % per mouse at the lowest point (day of the lowest point) [2, 6]: 7.4 (26) %
Comments [2, 6]: Toxic
Mortality related to the agent (day of death) [2, 6]: 1/5 (23)

VEGF Trap: fusion protein: VEGFR1 signal sequence, Ig domain D2 of VEGFR1, Ig domain D3 of VEGFR2, IgG1 Fc domain
Comments [1, 7]: Inactive
Log cell kill [1, 7]: 0.1
Regression Complete [1, 7]: 0/5
Regression Partial [1, 7]: 0/5
T-C [1, 7]: 0.4 days
Time to reach tumor size of 1000 mg (median) [1, 7]: 24.2 days
Comments [1, 8]: Inactive
Log cell kill [1, 8]: 0.4
Regression Complete [1, 8]: 0/5
Regression Partial [1, 8]: 0/5
T-C [1, 8]: 2.8 days
Time to reach tumor size of 1000 mg (median) [1, 8]: 26.6 days
Log cell kill [1, 9]: 0.1
Regression Complete [1, 9]: 0/5
Regression Partial [1, 9]: 0/5
T-C [1, 9]: 0.8 days
Time to reach tumor size of 1000 mg (median) [1, 9]: 24.6 days
Comments ([1]; VEGF Trap SC 40.0 mg/kg per administration, days 21, 25, total dose 80.0 mg/kg (MAD)): inactive
Average weight loss as % per mouse at the lowest point (day of the lowest point) [2, 7]: 0.4 (23) %
Mortality related to the agent (day of death) [2, 7]: 0/5
Average weight loss as % per mouse at the lowest point (day of the lowest point) [2, 8]: 1.8 (23) %
Mortality related to the agent (day of death) [2, 8]: 0/5
Average weight loss as % per mouse at the lowest point (day of the lowest point) [2, 9]: 1.3 (23) %
Mortality related to the agent (day of death) [2, 9]: 0/5

Reference: patent publication US7851443B2, “Combination comprising combretastatin and anticancer agents” (Aventis Pharma SA, priority 2005, dated 2010)
